Where “and” joins values, the source holds several entries; their conditions need not be identical. Equal entries are not always repeated. Where two headings read alike, the source gives them in different places.
Test system: HIV-1 Env-pseudoviruses (208-strain panel)
Assay: microbe, parasite or virus in culture
Type: cell-based
Parameters: Total Neutralized / % Neutralized: concentration or dose not given beside the values
Protocol: Neutralization was measured using single-round-of-infection HIV-1 Env-pseudoviruses and TZM-bl target cells (ARP Cat No. #8129)[44],[45]. Compounds were prepared at 400 μM with 4% DMSO (dimethyl sulfoxide) in PBS (phosphate-buffered saline) and diluted 20 times as the starting concentration for serial dilution in the neutralization assays. […] After incubation at 37 °C for 2 days, infection of target cells was measured by luciferase activity. Neutralization curves were fit by nonlinear regression using a five-parameter hill slope equation[45].

Structure (SMILES): COc1cnc(-c2csc(C(=O)NCCO)n2)c2[nH]cc(C(=O)C(=O)N3CCC(=C(C#N)c4ccccc4)CC3)c12 [BMS-818251]
- % Neutralized: 99% and 98% and 93% and 83% and 75%
- Total Neutralized: 205 and 204 and 194 and 173 and 155
- IC50 (Human immunodeficiency virus 1, BAL, TZM-bl, BaL.26, clade B, read-out: IC50): 0.1 nM
- IC50 (Human immunodeficiency virus 1, HXB2, TZM-bl, HXB2.DG, clade B, read-out: IC50): 0.1 nM
- IC50 (Human immunodeficiency virus 1, SC422, TZM-bl, SC422.8, clade B, read-out: IC50): 0.2 nM
- IC50 (Human immunodeficiency virus 1, TZM-bl): 0.3 nM
- IC50 (Human immunodeficiency virus 1, TZM-bl, 45_01dG5, clade B, read-out: IC50): 0.2 nM
- IC50 (Human immunodeficiency virus 1, TZM-bl, 0077.v1.c16, clade C, read-out: IC50): 0.2 nM
- IC50 (Human immunodeficiency virus 1, TZM-bl, 89.6.DG, clade B, read-out: IC50): 0.1 nM
- IC50 (Human immunodeficiency virus 1, TZM-bl, 96ZM651.02, clade C, read-out: IC50): 0.1 nM
- IC50 (Human immunodeficiency virus 1, TZM-bl, 208-strain panel, read-out: Geometric mean IC50): 1.5 nM
- IC50 (Human immunodeficiency virus 1, TZM-bl, 208-strain panel, read-out: Median IC50): 0.5 nM
- IC50 (Human immunodeficiency virus 1, TZM-bl, 235-47, clade AG, read-out: IC50): 0.1 nM
- IC50 (Human immunodeficiency virus 1, TZM-bl, 242-14 (Clade AG), read-out: IC50): 0.5 nM
- IC50 (Human immunodeficiency virus 1, TZM-bl, 246-F3.C10.2, clade AC, read-out: IC50): 2 nM
- IC50 (Human immunodeficiency virus 1, TZM-bl, 247-23 (Clade D), read-out: IC50): 0.5 nM
- IC50 (Human immunodeficiency virus 1, TZM-bl, 0260.v5.c36, clade A, read-out: IC50): 1 nM
- IC50 (Human immunodeficiency virus 1, TZM-bl, 263-8, clade AG, read-out: IC50): 0.1 nM
- IC50 (Human immunodeficiency virus 1, TZM-bl, 269-12, clade AG, read-out: IC50): 662 nM
- IC50 (Human immunodeficiency virus 1, TZM-bl, 271-11, clade AG, read-out: IC50): 1240 nM
- IC50 (Human immunodeficiency virus 1, TZM-bl, 286.36, clade C, read-out: IC50): 0.1 nM
- IC50 (Human immunodeficiency virus 1, TZM-bl, 288.38, clade C, read-out: IC50): 0.2 nM
- IC50 (Human immunodeficiency virus 1, TZM-bl, 0330.v4.c3 (Clade A), read-out: IC50): 10 nM
- IC50 (Human immunodeficiency virus 1, TZM-bl, 398-F1.F6.20, clade A, read-out: IC50): 11 nM
- IC50 (Human immunodeficiency virus 1, TZM-bl, 426c (Clade C), read-out: IC50): 0.6 nM
- IC50 (Human immunodeficiency virus 1, TZM-bl, 0439.v5.c1, clade A, read-out: IC50): 0.6 nM
- IC50 (Human immunodeficiency virus 1, TZM-bl, 0815.v3.c3, clade ACD, read-out: IC50): 0.1 nM
- IC50 (Human immunodeficiency virus 1, TZM-bl, 00836-2.5, clade C, read-out: IC50): 12200 nM
- IC50 (Human immunodeficiency virus 1, TZM-bl, 0921.v2.c14, clade C, read-out: IC50): 0.1 nM
- IC50 (Human immunodeficiency virus 1, TZM-bl, 928-28, clade AG, read-out: IC50): 46 nM
- IC50 (Human immunodeficiency virus 1, TZM-bl, 001428-2.42, clade C, read-out: IC50): 14 nM
- IC50 (Human immunodeficiency virus 1, TZM-bl, 3168.v4.c10, clade C, read-out: IC50): 0.1 nM
- IC50 (Human immunodeficiency virus 1, TZM-bl, 3301.v1.c24, clade AC, read-out: IC50): 5 nM
- IC50 (Human immunodeficiency virus 1, TZM-bl, 3326.v4.c3, clade CD, read-out: IC50): 0.1 nM
- IC50 (Human immunodeficiency virus 1, TZM-bl, 3337.v2.c6, clade CD, read-out: IC50): 0.2 nM
- IC50 (Human immunodeficiency virus 1, TZM-bl, 3365.v2.c20, clade A, read-out: IC50): 90 nM
- IC50 (Human immunodeficiency virus 1, TZM-bl, 3415.v1.c1, clade A, read-out: IC50): 0.4 nM
- IC50 (Human immunodeficiency virus 1, TZM-bl, 3468.v1.c12, clade AD, read-out: IC50): 0.5 nM
- IC50 (Human immunodeficiency virus 1, TZM-bl, 3589.v1.c4, clade AC, read-out: IC50): 0.2 nM
- IC50 (Human immunodeficiency virus 1, TZM-bl, 3637.v5.c3, clade C, read-out: IC50): 0.2 nM
- IC50 (Human immunodeficiency virus 1, TZM-bl, 3718.v3.c11, clade A, read-out: IC50): 0.7 nM
- IC50 (Human immunodeficiency virus 1, TZM-bl, 3817.v2.c59, clade CD, read-out: IC50): 8 nM
- IC50 (Human immunodeficiency virus 1, TZM-bl, 3873.v1.c24, clade C, read-out: IC50): 0.1 nM
- IC50 (Human immunodeficiency virus 1, TZM-bl, 3988.25, clade B, read-out: IC50): 0.1 nM
- IC50 (Human immunodeficiency virus 1, TZM-bl, 5768.04, clade B, read-out: IC50): 0.3 nM
- IC50 (Human immunodeficiency virus 1, TZM-bl, 6095.v1.c10, clade ACD, read-out: IC50): 0.1 nM
- IC50 (Human immunodeficiency virus 1, TZM-bl, 6101.10, clade B, read-out: IC50): 0.1 nM
- IC50 (Human immunodeficiency virus 1, TZM-bl, 6322.v4.c1, clade C, read-out: IC50): 42 nM
- IC50 (Human immunodeficiency virus 1, TZM-bl, 6405.v4.c34, clade D, read-out: IC50): 257 nM
- IC50 (Human immunodeficiency virus 1, TZM-bl, 6471.v1.c16, clade C, read-out: IC50): 0.1 nM
- IC50 (Human immunodeficiency virus 1, TZM-bl, 6540.v4.c1, clade AC, read-out: IC50): 2 nM
- IC50 (Human immunodeficiency virus 1, TZM-bl, 6545.v4.c1, clade AC, read-out: IC50): 0.5 nM
- IC50 (Human immunodeficiency virus 1, TZM-bl, 6631.v3.c10, clade C, read-out: IC50): 0.1 nM
- IC50 (Human immunodeficiency virus 1, TZM-bl, 6644.v2.c33, clade C, read-out: IC50): 2 nM
- IC50 (Human immunodeficiency virus 1, TZM-bl, 6785.v5.c14, clade C, read-out: IC50): 6 nM
- IC50 (Human immunodeficiency virus 1, TZM-bl, 6838.v1.c35, clade C, read-out: IC50): 0.4 nM
- IC50 (Human immunodeficiency virus 1, TZM-bl, 7165.18 (Clade B), read-out: IC50): 11 nM
- IC50 (Human immunodeficiency virus 1, TZM-bl, 0013095-2.11, clade C, read-out: IC50): 0.1 nM
- IC50 (Human immunodeficiency virus 1, TZM-bl, 16055-2.3, clade C, read-out: IC50): 0.3 nM
- IC50 (Human immunodeficiency virus 1, TZM-bl, 16845-2.22, clade C, read-out: IC50): 0.1 nM
- IC50 (Human immunodeficiency virus 1, TZM-bl, 16936-2.21, clade C, read-out: IC50): 0.4 nM
- IC50 (Human immunodeficiency virus 1, TZM-bl, 25710-2.43, clade C, read-out: IC50): 0.1 nM
- IC50 (Human immunodeficiency virus 1, TZM-bl, 25711-2.4, clade C, read-out: IC50): 1 nM
- IC50 (Human immunodeficiency virus 1, TZM-bl, 25925-2.22, clade C, read-out: IC50): 0.1 nM
- IC50 (Human immunodeficiency virus 1, TZM-bl, 26191-2.48, clade C, read-out: IC50): 0.1 nM
- IC50 (Human immunodeficiency virus 1, TZM-bl, 57128.vrc15, clade D, read-out: IC50): 0.6 nM
- IC50 (Human immunodeficiency virus 1, TZM-bl, 191821.E6.1, clade D, read-out: IC50): 0.1 nM
- IC50 (Human immunodeficiency virus 1, TZM-bl, 231965.c01, clade D, read-out: IC50): 0.1 nM
- IC50 (Human immunodeficiency virus 1, TZM-bl, 620345.c1, clade AE, read-out: IC50): 49 nM
- IC50 (Human immunodeficiency virus 1, TZM-bl, A07412M1.vrc12, clade D, read-out: IC50): 1 nM
- IC50 (Human immunodeficiency virus 1, TZM-bl, AC10.29, clade B, read-out: IC50): 0.2 nM
- IC50 (Human immunodeficiency virus 1, TZM-bl, ADA.DG, clade B, read-out: IC50): 0.1 nM
- IC50 (Human immunodeficiency virus 1, TZM-bl, BB201.B42, clade A, read-out: IC50): 4 nM
- IC50 (Human immunodeficiency virus 1, TZM-bl, BB539.2B13, clade A, read-out: IC50): 0.2 nM
- IC50 (Human immunodeficiency virus 1, TZM-bl, BG1168.01, clade B, read-out: IC50): 1 nM
- IC50 (Human immunodeficiency virus 1, TZM-bl, BI369.9A, clade A, read-out: IC50): 0.3 nM
- IC50 (Human immunodeficiency virus 1, TZM-bl, BJOX002000.03.2, clade BC, read-out: IC50): 0.2 nM
- IC50 (Human immunodeficiency virus 1, TZM-bl, BJOX009000.02.4, clade AE, read-out: IC50): 105 nM
- IC50 (Human immunodeficiency virus 1, TZM-bl, BJOX010000.06.2, clade AE, read-out: IC50): 1660 nM
- IC50 (Human immunodeficiency virus 1, TZM-bl, BJOX025000.01.1, clade AE, read-out: IC50): 178 nM
- IC50 (Human immunodeficiency virus 1, TZM-bl, BJOX028000.10.3 (Clade AE), read-out: IC50): 236 nM
- IC50 (Human immunodeficiency virus 1, TZM-bl, BL01.DG (Clade B), read-out: IC50): 2960 nM
- IC50 (Human immunodeficiency virus 1, TZM-bl, BR07.DG, clade B, read-out: IC50): 641 nM
- IC50 (Human immunodeficiency virus 1, TZM-bl, BR025.9, clade C, read-out: IC50): 880 nM
- IC50 (Human immunodeficiency virus 1, TZM-bl, BS208.B1, clade A, read-out: IC50): 0.3 nM
- IC50 (Human immunodeficiency virus 1, TZM-bl, BX08.16, clade B, read-out: IC50): 0.1 nM
- IC50 (Human immunodeficiency virus 1, TZM-bl, C1080.c3, clade AE, read-out: IC50): 5380 nM
- IC50 (Human immunodeficiency virus 1, TZM-bl, C2101.c1, clade AE, read-out: IC50): 1470 nM
- IC50 (Human immunodeficiency virus 1, TZM-bl, C3347.c11, clade AE, read-out: IC50): 452 nM
- IC50 (Human immunodeficiency virus 1, TZM-bl, C4118.09 (Clade AE), read-out: IC50): 59 nM
- IC50 (Human immunodeficiency virus 1, TZM-bl, CAAN.A2, clade B, read-out: IC50): 0.1 nM
- IC50 (Human immunodeficiency virus 1, TZM-bl, CAP45.G3, clade C, read-out: IC50): 4 nM
- IC50 (Human immunodeficiency virus 1, TZM-bl, CAP210.E8 (Clade C), read-out: IC50): 14 nM
- IC50 (Human immunodeficiency virus 1, TZM-bl, CAP244.D3, clade C, read-out: IC50): 0.1 nM
- IC50 (Human immunodeficiency virus 1, TZM-bl, CE703010217.B6, clade C, read-out: IC50): 0.1 nM
- IC50 (Human immunodeficiency virus 1, TZM-bl, CH038.12, clade BC, read-out: IC50): 92 nM
- IC50 (Human immunodeficiency virus 1, TZM-bl, CH070.1, clade BC, read-out: IC50): 0.8 nM
- IC50 (Human immunodeficiency virus 1, TZM-bl, CH117.4, clade BC, read-out: IC50): 0.4 nM
- IC50 (Human immunodeficiency virus 1, TZM-bl, CH119.10 (Clade BC), read-out: IC50): 0.1 nM
- IC50 (Human immunodeficiency virus 1, TZM-bl, CH181.12, clade BC, read-out: IC50): 0.1 nM
- IC50 (Human immunodeficiency virus 1, TZM-bl, CM244.ec1, clade AE, read-out: IC50): 260 nM
- IC50 (Human immunodeficiency virus 1, TZM-bl, CNE3, clade AE, read-out: IC50): 61 nM
- IC50 (Human immunodeficiency virus 1, TZM-bl, CNE4, clade B, read-out: IC50): 4730 nM
